According to patent US20240316022A1 (TYRA BIOSCIENCES, INC., priority 2021, published 2024):

How the values were obtained:
FGFR1 = molecular target: T1, FGFR1 (Homo sapiens, UniProt P11362); assay: Kinase binding assay (kinase-tagged T7 phage, qPCR), Kd; conditions: read-out: FGFR1 (Kd nM)
T1 construct: made in house; host or cells: E. coli derived from BL21, infected with T7 phage

FGFR2 = molecular target: T2, FGFR2 (Homo sapiens, UniProt P21802); assay: as above; conditions: read-out: FGFR2 (Kd nM)
T2 construct: made in house; host or cells: E. coli derived from BL21, infected with T7 phage
T2 sequence (P21802 22-821): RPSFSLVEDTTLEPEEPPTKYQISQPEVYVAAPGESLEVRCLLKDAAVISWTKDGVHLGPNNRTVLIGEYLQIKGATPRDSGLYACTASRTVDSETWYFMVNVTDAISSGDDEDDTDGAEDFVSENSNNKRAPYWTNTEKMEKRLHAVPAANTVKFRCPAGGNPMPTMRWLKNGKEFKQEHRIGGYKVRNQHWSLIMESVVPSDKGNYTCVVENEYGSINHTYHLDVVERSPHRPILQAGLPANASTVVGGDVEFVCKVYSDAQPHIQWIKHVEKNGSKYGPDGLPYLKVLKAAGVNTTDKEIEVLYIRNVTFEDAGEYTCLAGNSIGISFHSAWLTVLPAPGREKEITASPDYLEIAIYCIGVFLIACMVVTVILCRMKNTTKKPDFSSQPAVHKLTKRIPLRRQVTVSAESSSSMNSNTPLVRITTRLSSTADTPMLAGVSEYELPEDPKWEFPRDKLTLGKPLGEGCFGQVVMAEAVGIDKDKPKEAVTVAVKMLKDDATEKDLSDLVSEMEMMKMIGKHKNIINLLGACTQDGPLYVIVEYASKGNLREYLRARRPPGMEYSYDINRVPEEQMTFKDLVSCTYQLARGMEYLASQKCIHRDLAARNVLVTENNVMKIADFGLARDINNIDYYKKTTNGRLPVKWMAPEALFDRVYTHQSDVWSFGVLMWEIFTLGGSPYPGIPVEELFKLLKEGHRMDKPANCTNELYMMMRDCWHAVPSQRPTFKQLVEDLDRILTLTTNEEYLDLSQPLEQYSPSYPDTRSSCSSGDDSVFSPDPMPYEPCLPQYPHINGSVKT

FGFR3 = molecular target: T3, FGFR3 (Homo sapiens, UniProt P22607); assay: as above; conditions: read-out: FGFR3 (Kd nM)
T3 construct: made in house; host or cells: E. coli derived from BL21, infected with T7 phage
T3 sequence (P22607 23-806): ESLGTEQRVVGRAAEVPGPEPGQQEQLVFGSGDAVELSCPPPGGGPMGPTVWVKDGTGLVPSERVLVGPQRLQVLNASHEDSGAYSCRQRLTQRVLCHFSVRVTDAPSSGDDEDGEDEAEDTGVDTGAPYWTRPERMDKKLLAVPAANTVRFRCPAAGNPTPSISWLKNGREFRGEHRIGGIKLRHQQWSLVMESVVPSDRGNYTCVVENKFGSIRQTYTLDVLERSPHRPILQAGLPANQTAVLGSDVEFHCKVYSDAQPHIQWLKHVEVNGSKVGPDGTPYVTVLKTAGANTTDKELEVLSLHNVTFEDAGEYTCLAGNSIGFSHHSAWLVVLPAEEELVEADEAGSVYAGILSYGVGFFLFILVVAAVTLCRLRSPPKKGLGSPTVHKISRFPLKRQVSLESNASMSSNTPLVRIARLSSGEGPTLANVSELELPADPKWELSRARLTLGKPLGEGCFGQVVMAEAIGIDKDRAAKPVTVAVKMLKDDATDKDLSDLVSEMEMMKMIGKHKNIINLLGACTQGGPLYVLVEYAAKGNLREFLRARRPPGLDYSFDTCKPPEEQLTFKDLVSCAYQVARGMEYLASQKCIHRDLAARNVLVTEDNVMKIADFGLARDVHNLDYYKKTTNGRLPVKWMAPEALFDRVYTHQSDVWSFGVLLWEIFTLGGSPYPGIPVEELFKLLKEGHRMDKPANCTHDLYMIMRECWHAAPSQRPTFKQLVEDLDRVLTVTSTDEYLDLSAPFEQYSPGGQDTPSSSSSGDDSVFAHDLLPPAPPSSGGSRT

FGFR4 = molecular target: T4, FGFR4 (Homo sapiens, UniProt P22455); assay: as above; conditions: read-out: FGFR4 (Kd nM)
T4 construct: made in house; host or cells: E. coli derived from BL21, infected with T7 phage
T4 sequence (P22455 22-802): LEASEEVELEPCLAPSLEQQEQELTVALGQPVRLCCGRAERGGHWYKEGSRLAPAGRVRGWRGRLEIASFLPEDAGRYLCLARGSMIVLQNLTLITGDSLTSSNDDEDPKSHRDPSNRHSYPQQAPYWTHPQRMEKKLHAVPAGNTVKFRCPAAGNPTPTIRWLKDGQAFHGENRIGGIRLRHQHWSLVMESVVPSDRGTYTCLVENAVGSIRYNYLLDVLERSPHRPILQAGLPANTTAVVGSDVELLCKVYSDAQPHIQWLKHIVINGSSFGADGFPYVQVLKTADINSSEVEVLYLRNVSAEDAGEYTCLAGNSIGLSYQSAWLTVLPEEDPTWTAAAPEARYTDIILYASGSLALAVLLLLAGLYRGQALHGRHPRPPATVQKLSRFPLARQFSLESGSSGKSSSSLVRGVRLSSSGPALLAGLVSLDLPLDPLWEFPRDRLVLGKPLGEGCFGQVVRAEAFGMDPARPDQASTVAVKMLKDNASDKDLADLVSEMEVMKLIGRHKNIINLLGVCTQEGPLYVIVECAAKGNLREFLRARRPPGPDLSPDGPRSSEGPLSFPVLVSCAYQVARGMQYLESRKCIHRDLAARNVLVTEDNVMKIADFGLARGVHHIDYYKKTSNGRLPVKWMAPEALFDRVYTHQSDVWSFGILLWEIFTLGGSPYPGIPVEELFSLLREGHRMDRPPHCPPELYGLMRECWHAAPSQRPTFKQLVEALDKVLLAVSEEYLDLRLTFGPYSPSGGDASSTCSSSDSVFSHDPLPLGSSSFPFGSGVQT

BCR-FGFR1 Ba/F3 = molecular target: T5, BCR-FGFR1 Ba/F3 (Homo sapiens, UniProt P11362); assay: Ba/F3 cell viability assay (CellTiter-Glo 2.0); type: cell-based; conditions: Ba/F3 BCR-FGFR1 cells, 48 hours
T5 construct: host or cells: Ba/F3; the other entry of the earlier key: BCR (P11274, Breakpoint cluster region protein)
T5 sequence (P11362 478-767 limits assumed): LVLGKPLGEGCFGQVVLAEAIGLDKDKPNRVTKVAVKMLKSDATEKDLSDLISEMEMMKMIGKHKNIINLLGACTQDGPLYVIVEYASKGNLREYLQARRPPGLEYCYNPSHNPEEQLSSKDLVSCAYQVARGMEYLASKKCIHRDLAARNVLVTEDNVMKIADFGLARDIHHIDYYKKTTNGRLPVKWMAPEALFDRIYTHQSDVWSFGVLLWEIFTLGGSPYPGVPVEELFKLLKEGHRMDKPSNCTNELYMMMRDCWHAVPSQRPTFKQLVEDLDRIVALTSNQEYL

BCR-FGFR4 Ba/F3 = molecular target: T6, BCR-FGFR4 Ba/F3 (Homo sapiens, UniProt P22455); assay: Ba/F3 cell viability assay (CellTiter-Glo 2.0); type: cell-based; conditions: Ba/F3 BCR-FGFR4 cells, 48 hours
T6 construct: host or cells: Ba/F3; the other entry of the earlier key: BCR (P11274, Breakpoint cluster region protein)
T6 sequence (P22455 467-755 limits assumed): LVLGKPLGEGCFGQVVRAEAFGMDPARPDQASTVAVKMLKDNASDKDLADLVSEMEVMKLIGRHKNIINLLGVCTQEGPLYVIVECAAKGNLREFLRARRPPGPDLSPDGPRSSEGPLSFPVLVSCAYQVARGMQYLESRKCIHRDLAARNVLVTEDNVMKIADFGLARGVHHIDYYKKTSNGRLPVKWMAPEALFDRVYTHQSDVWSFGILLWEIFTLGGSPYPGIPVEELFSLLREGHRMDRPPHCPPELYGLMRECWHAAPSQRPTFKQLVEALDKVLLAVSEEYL

FGFR3-BAIAP2L1 Ba/F3 = molecular target: T7, FGFR3-BAIAP2L1 Ba/F3 (Homo sapiens, UniProt P22607); assay: Ba/F3 cell viability assay (CellTiter-Glo 2.0); type: cell-based; conditions: Ba/F3 FGFR3-BAIAP2L1 cells, 48 hours
T7 construct: host or cells: Ba/F3; the other entry of the earlier key: BAIAP2L1 (Q9UHR4, BAR/IMD domain-containing adapter protein 2-like 1)
T7 sequence (P22607 397-758 limits assumed): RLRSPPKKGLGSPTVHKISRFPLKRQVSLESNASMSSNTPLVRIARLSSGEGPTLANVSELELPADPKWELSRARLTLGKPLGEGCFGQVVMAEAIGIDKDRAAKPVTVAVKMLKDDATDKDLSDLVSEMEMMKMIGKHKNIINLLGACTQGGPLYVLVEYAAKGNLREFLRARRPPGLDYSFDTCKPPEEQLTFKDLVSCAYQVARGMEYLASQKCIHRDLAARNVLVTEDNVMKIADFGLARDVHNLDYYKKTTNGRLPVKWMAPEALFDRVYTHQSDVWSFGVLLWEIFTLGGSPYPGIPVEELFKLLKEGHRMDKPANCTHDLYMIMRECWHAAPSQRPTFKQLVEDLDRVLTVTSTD

T1 sequence (P11362 22-822): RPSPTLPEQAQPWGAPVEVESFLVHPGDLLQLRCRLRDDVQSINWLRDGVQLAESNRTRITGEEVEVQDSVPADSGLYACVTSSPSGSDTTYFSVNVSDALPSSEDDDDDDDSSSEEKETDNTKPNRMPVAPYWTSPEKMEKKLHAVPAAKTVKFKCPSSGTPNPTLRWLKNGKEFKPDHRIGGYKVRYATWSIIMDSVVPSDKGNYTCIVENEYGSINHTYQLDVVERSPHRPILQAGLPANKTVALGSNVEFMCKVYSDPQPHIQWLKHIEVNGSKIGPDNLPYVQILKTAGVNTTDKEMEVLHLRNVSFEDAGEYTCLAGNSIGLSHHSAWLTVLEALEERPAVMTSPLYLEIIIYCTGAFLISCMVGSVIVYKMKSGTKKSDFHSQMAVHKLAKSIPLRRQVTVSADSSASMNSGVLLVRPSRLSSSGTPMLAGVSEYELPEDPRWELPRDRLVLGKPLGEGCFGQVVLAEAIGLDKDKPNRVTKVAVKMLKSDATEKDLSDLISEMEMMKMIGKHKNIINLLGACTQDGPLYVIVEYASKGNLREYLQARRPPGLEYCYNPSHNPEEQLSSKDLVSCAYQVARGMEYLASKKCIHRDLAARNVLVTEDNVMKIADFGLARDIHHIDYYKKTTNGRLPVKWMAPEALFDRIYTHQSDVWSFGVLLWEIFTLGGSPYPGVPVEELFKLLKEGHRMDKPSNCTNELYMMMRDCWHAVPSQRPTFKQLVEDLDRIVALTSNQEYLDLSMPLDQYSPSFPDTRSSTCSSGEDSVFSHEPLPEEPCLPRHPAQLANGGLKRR

Kd (FGFR1): 0.1 to 100 nM | Kd (FGFR2): 0.1 to 100 nM | Kd (FGFR3): 0.1 to 100 nM | Kd (FGFR4): 0.1 to 100 nM
SMILES: Cc1cc(C#N)cc(-c2n[nH]c3ccc(O[C@H](C)c4c(C)cnnc4C)cc23)c1 [Example 79, 3-[5-[(1R)-1-(3,5-dimethylpyridazin-4-yl)ethoxy]-1H-indazol-3-yl]-5-methyl-benzonitrile]
IC50 (BCR-FGFR1 Ba/F3): 250 to 1000 nM | IC50 (BCR-FGFR4 Ba/F3): 250 to 1000 nM | IC50 (FGFR3-BAIAP2L1 Ba/F3): 0.1 to 100 nM
